Ends that are not written are not given here.
Legend:
[1] = system: Pseudomonas aeruginosa strain H1001; experiment: Assay for the cleaved (free, soluble) peptides from cellulose support, luminescence killing assay; type: cell-based; design: key: 1: Peptides showing stronger killing than Bac2A at a 4 to 8-fold higher dilution; Peptides showing stronger killing compared to that of Bac2A at a 4-fold higher dilution; 3: Peptides similar to Bac2A; 4: Peptides similar to Bac2A at the highest concentration but demonstrating weaker killing at a 2-fold dilution; 5: Peptides giving very weak or no killing at a 2-fold dilution; 6: Peptides with weak killing activity at the highest concentration; settings: for Soluble Class: Table 5, free peptides; for Activity Class Soluble: free (cleaved) peptides, killing relative to Bac2A
How it was run: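 Cellulose-synthesized peptides (amidated C-terminus, two β-alanines) cleaved by ammonia, released from punched spots 30 min at 37 °C, then serially diluted. P. aeruginosa H1001 (constitutive fliC::luxCDABE) overnight culture diluted 1:500 in LB or 100 mM Tris pH 7.3/20 mM glucose. Killing followed as time-dependent luminescence loss at 37 °C.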

[2] = system: Pseudomonas aeruginosa strain H1001 fliC::luxCDABE; experiment: Luminescence-based assay for the non-cleaved (bound) peptides on cellulose membranes; type: cell-based; settings: for Luminescence at the given time in minutes: 0 / Luminescence at the given time in minutes: 20 / Luminescence at the given time in minutes: 40 / Luminescence at the given time in minutes: 60 / Luminescence at the given time in minutes: 80 / Luminescence at the given time in minutes: 100 / Luminescence at the given time in minutes: 120 / Luminescence at the given time in minutes: 180 / Luminescence at the given time in minutes: 240: cellulose-bound peptide; for Luminescence at the given time in minutes: 0: 0 min; for Luminescence at the given time in minutes: 20: 20 min; for Luminescence at the given time in minutes: 40: 40 min; for Luminescence at the given time in minutes: 60: 60 min; for Luminescence at the given time in minutes: 80: 80 min; for Luminescence at the given time in minutes: 100: 100 min; for Luminescence at the given time in minutes: 120: 120 min; for Luminescence at the given time in minutes: 180: 180 min; for Luminescence at the given time in minutes: 240: 240 min; for Activity Class bound: uncleaved cellulose-bound peptides
How it was run: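 Peptides remained bound to cellulose spots, which were ethanol-washed and equilibrated in 100 mM Tris pH 7.3. Constitutively lux-expressing P. aeruginosa (OD600 0.35 culture diluted 1:25) added in 10 mM Tris-HCl pH 7.3, 20 mM glucose at 37° C. Luminescence (RLU) followed over 14 time points; peptides binned into six activity classes.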

[3] = system: Staphylococcus aureus ATCC25923; settings: ATCC25923
Procedure: (§1) Minimal inhibitory concentration (MIC) determination. The MICs of the peptides were measured using a modified broth microdilution method in Mueller Hinton (MH) medium. Wu et al., J. Biol. Chem. 274: 29-35, 1999. Briefly, the peptides were dissolved and stored in glass vials. The assay was performed in sterile 96-well polypropylene microtitre plates were used. Serial dilutions of the peptides to be assayed were performed in 0.01% acetic acid (Fisher) containing 0.2% bovine serum albumin (Boehringer Mannheim GmbH) at 10× the desired final concentration. Ten microlitres of the 10× peptides were added to each well of a 96-well polypropylene plate containing 90 μl of MH media per well. Bacteria were added to the plate from an overnight culture at 2-7×10^5 colony forming units/ml and incubated over night at 37° C. The MIC was taken as the concentration at which no growth was observed.
(§2) Strains. For the killing assay a mini-Tn5-lux mutant in Pseudomonas aeruginosa H103 was used. The strain is called H1001 and contains a fliC::luxCDABE transcriptional fusion resulting in constitutive expression of luciferase. The bacterial strains used for the antimicrobial activity assays included Escherichia coli UB1005 (F-, nalA37, metB1), a wild-type Salmonella enterica ssp. Typhimurium (S. Typhimurium), wild-type Pseudomonas aeruginosa PAO1 strain H103, Enterococcus faecalis ATCC29212, Staphylococcus aureus ATCC25923, and a clinical isolate of Staphylococcus epidermidis obtained from Dr. D. Speert (Department of Medicine, University of British Columbia). Antifungal activity was tested using a lab isolate of Candida albicans obtained from Dr. B. Dill (Department of Microbiology and Immunology, University of British Columbia).
(§3) In addition, the parent peptide Bac2A was included in these studies as a standard. The minimal inhibitory concentrations (MIC) were determined for the important medical pathogens Pseudomonas aeruginosa, Escherichia coli, Salmonella typhimurium, Staphylococcus aureus, Staphylococcus epidermidis, Enterococcus faecaelis, and the yeast Candida albicans in Mueller-Hinton media.

[4] = system: Salmonella enterica ssp. Typhimurium; settings: ssp. Typhimurium
Procedure: as §1, §2, §3

[5] = system: Enterococcus faecalis ATCC29212; settings: ATCC29212
Procedure: as §1, §2, §3

[6] = system: Pseudomonas aeruginosa PAO1 strain H103; settings: PAO1
Procedure: as §1, §2, §3

Candida albicans = system: Candida albicans
Procedure: as §1, §2, §3

[7] = system: Staphylococcus epidermidis
Procedure: as §1, §2, §3

ILRRVRVRAVAI-NH2 (C-terminus assumed) [Bac022]
Soluble Class [1]: 6
Activity Class Soluble [1]: 6
Luminescence at the given time in minutes: 0 [2]: 4336 RLU
Luminescence at the given time in minutes: 20 [2]: 7179 RLU
Luminescence at the given time in minutes: 40 [2]: 5180 RLU
Luminescence at the given time in minutes: 60 [2]: 4505 RLU
Luminescence at the given time in minutes: 80 [2]: 3675 RLU
Luminescence at the given time in minutes: 100 [2]: 3365 RLU
Luminescence at the given time in minutes: 120 [2]: 3044 RLU
Luminescence at the given time in minutes: 180 [2]: 2912 RLU
Luminescence at the given time in minutes: 240 [2]: 2966 RLU
Activity Class bound [2]: 5 (Peptides reducing luminescence (lux) values to between 1500 to 3000 after 240 min.)
MIC S. aureus [3]: 125 µg/mL
MIC S. typhimurium [4]: 272 µg/mL
MIC E. faecalis [5]: 272 µg/mL
MIC P. aeruginosa [6]: 250 µg/mL
MIC P. aeruginosa Muller Hinton Media [6]: 250 µg/mL
MIC P. aeruginosa With 10 μM Mg [6]: 250 µg/mL
MIC P. aeruginosa With 2 mM Mg [6]: >250 µg/mL
MIC C. albicans (Candida albicans): 272 µg/mL
MIC S. epidermidis [7]: 136 µg/mL

RAVAVIIRLRRV-NH2 (C-terminus assumed) [Bac014]
Soluble Class [1]: 1
Activity Class Soluble [1]: 1
Luminescence at the given time in minutes: 0 [2]: 5233 RLU
Luminescence at the given time in minutes: 20 [2]: 8217 RLU
Luminescence at the given time in minutes: 40 [2]: 7835 RLU
Luminescence at the given time in minutes: 60 [2]: 7867 RLU
Luminescence at the given time in minutes: 80 [2]: 8100 RLU
Luminescence at the given time in minutes: 100 [2]: 8931 RLU
Luminescence at the given time in minutes: 120 [2]: 8956 RLU
Luminescence at the given time in minutes: 180 [2]: 10738 RLU
Luminescence at the given time in minutes: 240 [2]: 12876 RLU
MIC S. aureus [3]: 13 µg/mL
MIC S. typhimurium [4]: 11 µg/mL
MIC E. faecalis [5]: 11 µg/mL
MIC P. aeruginosa [6]: 33 µg/mL
MIC P. aeruginosa Muller Hinton Media [6]: 33 µg/mL
MIC P. aeruginosa With 10 μM Mg [6]: 16 µg/mL
MIC P. aeruginosa With 2 mM Mg [6]: 63 µg/mL
MIC C. albicans (Candida albicans): 8 µg/mL
MIC S. epidermidis [7]: 8 µg/mL

RLRRIVVIRVAR-NH2 (C-terminus assumed) [Bac252]
MIC S. aureus [3]: 8 µg/mL
MIC S. Typhim. [4]: 8 µg/mL
MIC E. faecalis [5]: 8 µg/mL
MIC P. aerug [6]: 8 µg/mL
MIC C. albicans (Candida albicans): 16 µg/mL
MIC S. epi. [7]: 2 µg/mL

RLRRIVVIRVRR-NH2 (C-terminus assumed) [Bac433]
MIC S. aureus [3]: 8 µg/mL
MIC S. Typhim. [4]: 8 µg/mL
MIC E. faecalis [5]: 4 µg/mL
MIC P. aerug [6]: 8 µg/mL
MIC C. albicans (Candida albicans): 31 µg/mL
MIC S. epi. [7]: 2 µg/mL

RLWRIVVIRVAR-NH2 (C-terminus assumed) [Bac256]
MIC S. aureus [3]: 2 µg/mL
MIC S. Typhim. [4]: 8 µg/mL
MIC E. faecalis [5]: 2 µg/mL
MIC P. aerug [6]: 8 µg/mL
MIC C. albicans (Candida albicans): 8 µg/mL
MIC S. epi. [7]: 0.5 µg/mL

RRARIVVIRVAR-NH2 (C-terminus assumed) [Bac233]
MIC S. aureus [3]: 16 µg/mL
MIC S. Typhim. [4]: 8 µg/mL
MIC E. faecalis [5]: 16 µg/mL
MIC P. aerug [6]: 8 µg/mL
MIC C. albicans (Candida albicans): 8 µg/mL
MIC S. epi. [7]: 2 µg/mL

RRWRIVVIRVRR-NH2 (C-terminus assumed) [Bac430]
MIC S. aureus [3]: 2 µg/mL
MIC S. Typhim. [4]: 4 µg/mL
MIC E. faecalis [5]: 4 µg/mL
MIC P. aerug [6]: 2 µg/mL
MIC C. albicans (Candida albicans): 4 µg/mL
MIC S. epi. [7]: 0.2 µg/mL

RRWVIWRR-NH2 (C-terminus assumed) [Bac437]
MIC S. aureus [3]: 16 µg/mL
MIC S. Typhim. [4]: 31 µg/mL
MIC E. faecalis [5]: 32 µg/mL
MIC P. aerug [6]: 250 µg/mL
MIC C. albicans (Candida albicans): 63 µg/mL
MIC S. epi. [7]: 8 µg/mL

RWWKIWVIRWWR-NH2 (C-terminus assumed) [Bac432]
MIC S. aureus [3]: 8 µg/mL
MIC S. Typhim. [4]: 16 µg/mL
MIC E. faecalis [5]: 8 µg/mL
MIC P. aerug [6]: 31 µg/mL
MIC C. albicans (Candida albicans): 31 µg/mL
MIC S. epi. [7]: 1 µg/mL

VIRRRRILAAVV-NH2 (C-terminus assumed) [Bac044]
Soluble Class [1]: 6
Activity Class Soluble [1]: 6
Luminescence at the given time in minutes: 0 [2]: 5592 RLU
Luminescence at the given time in minutes: 20 [2]: 7069 RLU
Luminescence at the given time in minutes: 40 [2]: 5932 RLU
Luminescence at the given time in minutes: 60 [2]: 5652 RLU
Luminescence at the given time in minutes: 80 [2]: 5206 RLU
Luminescence at the given time in minutes: 100 [2]: 5008 RLU
Luminescence at the given time in minutes: 120 [2]: 4999 RLU
Luminescence at the given time in minutes: 180 [2]: 5060 RLU
Luminescence at the given time in minutes: 240 [2]: 5195 RLU
Activity Class bound [2]: 6 (Peptides having residual luminescence (lux) values greater than 3000 after 240 min.)
MIC S. aureus [3]: 250 µg/mL
MIC S. typhimurium [4]: 113 µg/mL
MIC E. faecalis [5]: > 272 µg/mL
MIC P. aeruginosa [6]: > 250 µg/mL
MIC P. aeruginosa Muller Hinton Media [6]: >250 µg/mL
MIC P. aeruginosa With 10 μM Mg [6]: 250 µg/mL
MIC P. aeruginosa With 2 mM Mg [6]: >250 µg/mL
MIC C. albicans (Candida albicans): 136 µg/mL
MIC S. epidermidis [7]: 113 µg/mL

VRLRIRVAVIRA-NH2 (C-terminus assumed) [Bac034]
Soluble Class [1]: 1
Activity Class Soluble [1]: 1
Luminescence at the given time in minutes: 0 [2]: 5305 RLU
Luminescence at the given time in minutes: 20 [2]: 6449 RLU
Luminescence at the given time in minutes: 40 [2]: 4160 RLU
Luminescence at the given time in minutes: 60 [2]: 1454 RLU
Luminescence at the given time in minutes: 80 [2]: 390 RLU
Luminescence at the given time in minutes: 100 [2]: 157 RLU
Luminescence at the given time in minutes: 120 [2]: 64 RLU
Luminescence at the given time in minutes: 180 [2]: 60 RLU
Luminescence at the given time in minutes: 240 [2]: 63 RLU
Activity Class bound [2]: 3 (Peptides similar to Bac2A resulting in lux values of less than 500 after 240 min.)
MIC S. aureus [3]: 5 µg/mL
MIC S. typhimurium [4]: 6 µg/mL
MIC E. faecalis [5]: 11 µg/mL
MIC P. aeruginosa [6]: 10 µg/mL
MIC P. aeruginosa Muller Hinton Media [6]: 10 µg/mL
MIC P. aeruginosa With 10 μM Mg [6]: 4 µg/mL
MIC P. aeruginosa With 2 mM Mg [6]: 16 µg/mL
MIC C. albicans (Candida albicans): 8 µg/mL
MIC S. epidermidis [7]: 4 µg/mL

— patent publication US20080207522A1, “Antimicrobial Peptides” (priority 2004, published 2008)
